In ChEMBL document CHEMBL6074715, “Discovery of pyridine-based derivatives as FLT3 inhibitors for the treatment of acute myeloid leukemia” (Eur J Med Chem, 2025):
The source made the active and inactive calls. The rule behind the calls is not given here.

Tests used:
K562 = experiment: Antiproliferative activity against human K562 cells assessed as inhibition of cell growth measured after 72 hrs by Celltiter-glo luminescent cell viability assay; type: functional, cell-based; settings: K562, 72 h
Jurkat = experiment: Antiproliferative activity against human Jurkat cells assessed as inhibition of cell growth measured after 72 hrs by Celltiter-glo luminescent cell viability assay; type: functional, cell-based
EBC-1 = experiment: Antiproliferative activity against human EBC-1 cells assessed as inhibition of cell growth measured after 72 hrs by Celltiter-glo luminescent cell viability assay; type: functional, cell-based; settings: EBC-1, 72 h
[1] = Antiproliferative activity against human PBMC cells assessed as inhibition of cell growth measured after 72 hrs by Celltiter-glo luminescent cell viability assay; type: toxicity, cell-based
MOLM-13 [2] = experiment: Effect on FLT3 level in human MOLM-13 cells at 0.04 to 5 nM measured after 2 hrs by Western blot analysis; type: functional, cell-based; settings: dose 0.04-5 nM
MOLM-13 [3] = experiment: Induction of cell cycle arrest in human MOLM-13 cells assessed as accumulation of cells at G1 phase at 1 uM measured after 48 hrs by PI staining based flow cytometry analysis (reference value: 42.8%); type: functional
MOLM-13 [4] = experiment: Induction of cell cycle arrest in human MOLM-13 cells assessed as accumulation of cells at G2 phase at 0.3 uM measured after 48 hrs by PI staining based flow cytometry analysis (reference value: 12.5%); type: functional
MOLM-13 [5] = experiment: Induction of apoptosis in human MOLM-13 cells assessed as viable cells at 1 uM measured after 48 hrs by annexin-V and PI staining based flow cytometry analysis (reference value: 88.7%); type: functional; settings: read-out: Activity
MOLM-13 [6] = experiment: Induction of apoptosis in human MOLM-13 cells assessed as early apoptotic cells at 1 uM measured after 48 hrs by annexin-V and PI staining based flow cytometry analysis (reference value: 8.92%); type: functional
MOLM-13 [7] = experiment: Induction of apoptosis in human MOLM-13 cells assessed as late apoptotic cells at 3 uM measured after 48 hrs by annexin-V and PI staining based flow cytometry analysis (reference value: 2.28%); type: functional
MOLM-13 [8] = experiment: Induction of apoptosis in human MOLM-13 cells assessed as necrotic cells at 1 uM measured after 48 hrs by annexin-V and PI staining based flow cytometry analysis (reference value: 0.087%); type: functional
[9] = MRT (0 to t) in Sprague-Dawley rat at 5 mg/kg, iv measured upto 48 hrs by LC-MS/MS analysis; type: ADME, organism-based; settings: in vivo
[10] = AUC (0 to t) in Sprague-Dawley rat at 20 mg/kg, po measured upto 48 hrs by LC-MS/MS analysis; type: ADME, organism-based; settings: in vivo
[11] = Oral bioavailability in Sprague-Dawley rat at 20 mg/kg measured upto 48 hrs by LC-MS/MS analysis; type: ADME, organism-based; settings: in vivo
[12] = Toxicity in female NSG mouse assessed as effect on heart at 20 to 40 mg/kg, po measured after 21 days by H and E staining based analysis; type: organism-based; settings: in vivo, 504 h, dose 20-40 mg/kg, time 21 day
[13] = Toxicity in female NSG mouse assessed as effect on spleen at 20 to 40 mg/kg, po measured after 21 days by H and E staining based analysis; type: organism-based; settings: in vivo, 504 h, dose 20-40 mg/kg, time 21 day
[14] = Toxicity in female NSG mouse assessed as effect on lung at 20 to 40 mg/kg, po measured after 21 days by H and E staining based analysis; type: organism-based; settings: in vivo, 504 h, dose 20-40 mg/kg, time 21 day
[15] = Toxicity in female NSG mouse assessed as effect on kidney at 20 to 40 mg/kg, po measured after 21 days by H and E staining based analysis; type: organism-based; settings: in vivo, 504 h, dose 20-40 mg/kg, time 21 day
[16] = target: T1, Vascular endothelial growth factor receptor 3 (Homo sapiens, UniProt P35916); experiment: Inhibition of human FLT4 assessed as residual activity at 1 uM by Eurofins kinase assay relative to control
T1 sequence (P35916 whole entry): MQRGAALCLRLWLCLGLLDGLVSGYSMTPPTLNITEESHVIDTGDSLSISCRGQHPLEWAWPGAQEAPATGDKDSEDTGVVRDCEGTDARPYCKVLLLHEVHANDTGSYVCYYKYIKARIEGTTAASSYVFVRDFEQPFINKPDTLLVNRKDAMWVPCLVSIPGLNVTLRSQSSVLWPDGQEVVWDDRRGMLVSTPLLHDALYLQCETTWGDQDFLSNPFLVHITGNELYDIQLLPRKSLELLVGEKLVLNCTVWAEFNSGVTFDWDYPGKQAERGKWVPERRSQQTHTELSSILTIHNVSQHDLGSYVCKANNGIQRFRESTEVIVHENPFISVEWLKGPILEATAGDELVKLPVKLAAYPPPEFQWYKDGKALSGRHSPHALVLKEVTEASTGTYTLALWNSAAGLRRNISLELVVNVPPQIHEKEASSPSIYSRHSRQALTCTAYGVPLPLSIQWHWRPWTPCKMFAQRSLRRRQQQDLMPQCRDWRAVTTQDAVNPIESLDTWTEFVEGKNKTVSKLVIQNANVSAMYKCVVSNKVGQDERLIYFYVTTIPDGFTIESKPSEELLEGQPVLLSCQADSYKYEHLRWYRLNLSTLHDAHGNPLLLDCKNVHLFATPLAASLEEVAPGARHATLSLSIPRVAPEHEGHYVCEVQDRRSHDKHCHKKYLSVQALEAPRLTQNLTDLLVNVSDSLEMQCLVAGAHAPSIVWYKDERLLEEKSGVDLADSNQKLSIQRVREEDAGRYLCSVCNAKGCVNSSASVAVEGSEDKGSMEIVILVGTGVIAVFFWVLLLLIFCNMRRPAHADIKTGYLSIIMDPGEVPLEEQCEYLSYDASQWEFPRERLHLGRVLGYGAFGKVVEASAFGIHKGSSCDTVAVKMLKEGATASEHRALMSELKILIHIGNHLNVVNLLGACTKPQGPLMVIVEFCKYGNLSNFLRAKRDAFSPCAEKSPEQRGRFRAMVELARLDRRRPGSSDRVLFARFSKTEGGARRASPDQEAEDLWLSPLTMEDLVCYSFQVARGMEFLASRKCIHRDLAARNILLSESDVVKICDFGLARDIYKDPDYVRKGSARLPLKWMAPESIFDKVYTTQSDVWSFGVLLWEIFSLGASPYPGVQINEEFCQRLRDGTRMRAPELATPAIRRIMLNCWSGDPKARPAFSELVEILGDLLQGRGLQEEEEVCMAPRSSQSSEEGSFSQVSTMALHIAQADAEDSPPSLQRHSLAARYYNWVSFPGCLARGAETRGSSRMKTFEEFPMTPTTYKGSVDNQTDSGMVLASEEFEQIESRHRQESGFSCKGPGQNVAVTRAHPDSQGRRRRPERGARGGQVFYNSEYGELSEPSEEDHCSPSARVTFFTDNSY

[17] = target: ALK tyrosine kinase receptor (Homo sapiens) (UniProt Q9UM73); experiment: Inhibition of human ALK at 1 uM by Eurofins kinase assay
[18] = target: Aurora kinase A (Homo sapiens) (UniProt O14965); experiment: Inhibition of human AuroraA at 1 uM by Eurofins kinase assay
Sequence of Aurora kinase A (Homo sapiens) (O14965 whole entry): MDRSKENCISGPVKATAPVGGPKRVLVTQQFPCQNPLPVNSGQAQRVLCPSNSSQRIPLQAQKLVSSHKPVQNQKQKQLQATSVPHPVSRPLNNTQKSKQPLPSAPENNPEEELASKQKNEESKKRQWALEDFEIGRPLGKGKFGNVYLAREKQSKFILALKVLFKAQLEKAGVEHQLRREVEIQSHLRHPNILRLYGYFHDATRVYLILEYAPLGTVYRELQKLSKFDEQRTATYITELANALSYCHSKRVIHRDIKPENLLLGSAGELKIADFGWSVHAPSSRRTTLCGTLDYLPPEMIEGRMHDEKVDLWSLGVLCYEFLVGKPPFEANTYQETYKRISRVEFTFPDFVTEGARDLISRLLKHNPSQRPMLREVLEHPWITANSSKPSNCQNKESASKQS

[19] = target: Aurora kinase B (Homo sapiens) (UniProt Q96GD4); experiment: Inhibition of human AuroraB at 1 uM by Eurofins kinase assay
Sequence of Aurora kinase B (Homo sapiens) (Q96GD4 whole entry): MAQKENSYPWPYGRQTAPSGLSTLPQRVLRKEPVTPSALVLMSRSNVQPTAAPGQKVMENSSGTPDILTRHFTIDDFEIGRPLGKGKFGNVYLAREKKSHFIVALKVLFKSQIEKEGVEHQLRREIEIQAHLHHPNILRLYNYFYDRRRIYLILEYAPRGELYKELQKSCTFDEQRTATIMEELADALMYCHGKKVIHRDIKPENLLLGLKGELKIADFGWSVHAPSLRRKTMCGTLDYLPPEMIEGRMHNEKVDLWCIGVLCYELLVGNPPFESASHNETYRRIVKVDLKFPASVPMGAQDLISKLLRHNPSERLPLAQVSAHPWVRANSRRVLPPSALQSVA

[20] = target: Tyrosine-protein kinase BTK (Homo sapiens) (UniProt Q06187); experiment: Inhibition of human BTK at 1 uM by Eurofins kinase assay
Sequence of Tyrosine-protein kinase BTK (Homo sapiens) (Q06187 whole entry): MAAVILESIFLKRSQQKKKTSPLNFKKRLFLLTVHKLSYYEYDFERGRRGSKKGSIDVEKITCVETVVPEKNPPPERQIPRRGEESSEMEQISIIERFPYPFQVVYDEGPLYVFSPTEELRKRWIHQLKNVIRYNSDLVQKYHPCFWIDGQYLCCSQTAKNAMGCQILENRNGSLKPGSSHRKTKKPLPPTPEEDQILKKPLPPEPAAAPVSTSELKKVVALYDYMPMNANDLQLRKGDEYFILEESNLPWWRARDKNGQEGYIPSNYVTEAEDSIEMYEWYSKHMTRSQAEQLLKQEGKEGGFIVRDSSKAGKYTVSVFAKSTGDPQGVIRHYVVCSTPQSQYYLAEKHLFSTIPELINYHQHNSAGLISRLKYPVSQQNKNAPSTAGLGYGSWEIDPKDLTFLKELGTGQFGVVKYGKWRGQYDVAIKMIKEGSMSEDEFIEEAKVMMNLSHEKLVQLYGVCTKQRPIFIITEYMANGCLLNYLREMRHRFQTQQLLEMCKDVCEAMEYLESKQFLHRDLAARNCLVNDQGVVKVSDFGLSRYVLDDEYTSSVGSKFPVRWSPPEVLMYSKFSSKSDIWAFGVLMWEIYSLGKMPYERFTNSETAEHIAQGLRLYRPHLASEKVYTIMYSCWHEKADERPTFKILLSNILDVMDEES

[21] = target: Mast/stem cell growth factor receptor Kit (Homo sapiens) (UniProt P10721); experiment: Inhibition of human ckit at 1 uM by Eurofins kinase assay
Sequence of Mast/stem cell growth factor receptor Kit (Homo sapiens) (P10721 whole entry): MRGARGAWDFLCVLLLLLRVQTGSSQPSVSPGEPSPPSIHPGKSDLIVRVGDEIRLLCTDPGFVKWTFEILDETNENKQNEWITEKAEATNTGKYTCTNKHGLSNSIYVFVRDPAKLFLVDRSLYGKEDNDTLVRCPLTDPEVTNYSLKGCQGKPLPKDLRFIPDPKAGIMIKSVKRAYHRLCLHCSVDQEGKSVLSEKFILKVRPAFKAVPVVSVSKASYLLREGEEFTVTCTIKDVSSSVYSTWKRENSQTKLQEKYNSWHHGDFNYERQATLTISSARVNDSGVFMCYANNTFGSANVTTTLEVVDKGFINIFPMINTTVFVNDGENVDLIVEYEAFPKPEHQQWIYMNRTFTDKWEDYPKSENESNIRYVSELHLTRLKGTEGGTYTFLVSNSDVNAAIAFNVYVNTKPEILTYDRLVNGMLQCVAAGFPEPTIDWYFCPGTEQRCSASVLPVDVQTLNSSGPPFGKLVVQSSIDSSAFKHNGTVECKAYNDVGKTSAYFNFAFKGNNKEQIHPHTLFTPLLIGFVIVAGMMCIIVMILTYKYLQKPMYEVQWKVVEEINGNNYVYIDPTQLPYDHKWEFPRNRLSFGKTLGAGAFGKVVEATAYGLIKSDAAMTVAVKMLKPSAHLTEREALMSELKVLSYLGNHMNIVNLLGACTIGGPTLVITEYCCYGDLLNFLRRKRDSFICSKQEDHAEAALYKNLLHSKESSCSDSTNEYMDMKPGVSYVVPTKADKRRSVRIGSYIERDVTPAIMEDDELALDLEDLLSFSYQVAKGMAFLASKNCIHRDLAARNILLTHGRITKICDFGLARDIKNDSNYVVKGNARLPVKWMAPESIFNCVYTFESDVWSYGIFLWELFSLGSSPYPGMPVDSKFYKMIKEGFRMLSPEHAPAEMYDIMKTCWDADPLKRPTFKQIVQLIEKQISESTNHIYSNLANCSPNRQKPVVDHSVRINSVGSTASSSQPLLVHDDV

[22] = tested on: Mast/stem cell growth factor receptor Kit (Homo sapiens), P10721 [D816V]; experiment: Inhibition of human c-kit D816V mutant at 1 uM by Eurofins kinase assay
Sequence of Mast/stem cell growth factor receptor Kit (Homo sapiens), P10721 [D816V] (P10721 whole entry D816V): as the sequence (P10721 whole entry) above, with D816V counted along it

[23] = tested on: Mast/stem cell growth factor receptor Kit (Homo sapiens), P10721 [V654A]; experiment: Inhibition of human c-kit V654A mutant at 1 uM by Eurofins kinase assay
Sequence of Mast/stem cell growth factor receptor Kit (Homo sapiens), P10721 [V654A] (P10721 whole entry V654A): as the sequence (P10721 whole entry) above, with V654A counted along it

[24] = target: Cyclin-dependent kinase 2/cyclin A (Homo sapiens) (UniProt P24941+P20248+P78396); experiment: Inhibition of human CDK2/cyclinA at 1 uM by Eurofins kinase assay; type: protein-complex assay
[25] = target: Epithelial discoidin domain-containing receptor 1 (Homo sapiens) (UniProt Q08345); experiment: Inhibition of human DDR1 at 1 uM by Eurofins kinase assay
[26] = target: Death-associated protein kinase 1 (Homo sapiens) (UniProt P53355); experiment: Inhibition of human DAPK1 at 1 uM by Eurofins kinase assay
[27] = target: Receptor-type tyrosine-protein kinase FLT3 (Homo sapiens) (UniProt P36888); experiment: Inhibition of human FLT3 at 1 uM by Eurofins kinase assay
[28] = tested on: Receptor-type tyrosine-protein kinase FLT3 (Homo sapiens), P36888 [D835Y]; experiment: Inhibition of human FLT3 D835Y mutant at 1 uM by Eurofins kinase assay
[29] = target: Tyrosine-protein kinase Lck (Homo sapiens) (UniProt P06239); experiment: Inhibition of human LCK at 1 uM by Eurofins kinase assay
Sequence of Tyrosine-protein kinase Lck (Homo sapiens) (P06239 2-509 limits assumed): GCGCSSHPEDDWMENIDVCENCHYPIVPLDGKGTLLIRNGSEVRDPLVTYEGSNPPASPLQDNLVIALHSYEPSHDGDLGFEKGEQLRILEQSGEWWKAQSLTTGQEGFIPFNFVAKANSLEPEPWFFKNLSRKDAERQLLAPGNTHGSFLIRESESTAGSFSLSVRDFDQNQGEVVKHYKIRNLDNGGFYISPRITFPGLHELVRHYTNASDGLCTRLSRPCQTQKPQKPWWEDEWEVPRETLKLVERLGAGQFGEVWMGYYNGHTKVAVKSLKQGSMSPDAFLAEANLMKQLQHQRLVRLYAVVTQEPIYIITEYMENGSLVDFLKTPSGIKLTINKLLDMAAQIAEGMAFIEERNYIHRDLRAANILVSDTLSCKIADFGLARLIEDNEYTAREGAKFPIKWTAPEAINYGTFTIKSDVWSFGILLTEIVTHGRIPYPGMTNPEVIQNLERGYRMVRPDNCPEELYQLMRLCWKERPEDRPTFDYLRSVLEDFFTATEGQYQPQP

[30] = target: Dual specificity mitogen-activated protein kinase kinase 1 (Homo sapiens) (UniProt Q02750); experiment: Inhibition of human MEK1 at 1 uM by Eurofins kinase assay
[31] = target: Platelet-derived growth factor receptor alpha (Homo sapiens) (UniProt P16234); experiment: Inhibition of human PDGFRalpha at 1 uM by Eurofins kinase assay
Homo sapiens = species on record: Homo sapiens; experiment: Inhibition of human Rct at 1 uM by Eurofins kinase assay
[32] = target: Receptor-interacting serine/threonine-protein kinase 1 (Homo sapiens) (UniProt Q13546); experiment: Inhibition of human RIPK1 at 1 uM by Eurofins kinase assay
Sequence of Receptor-interacting serine/threonine-protein kinase 1 (Homo sapiens) (Q13546 whole entry): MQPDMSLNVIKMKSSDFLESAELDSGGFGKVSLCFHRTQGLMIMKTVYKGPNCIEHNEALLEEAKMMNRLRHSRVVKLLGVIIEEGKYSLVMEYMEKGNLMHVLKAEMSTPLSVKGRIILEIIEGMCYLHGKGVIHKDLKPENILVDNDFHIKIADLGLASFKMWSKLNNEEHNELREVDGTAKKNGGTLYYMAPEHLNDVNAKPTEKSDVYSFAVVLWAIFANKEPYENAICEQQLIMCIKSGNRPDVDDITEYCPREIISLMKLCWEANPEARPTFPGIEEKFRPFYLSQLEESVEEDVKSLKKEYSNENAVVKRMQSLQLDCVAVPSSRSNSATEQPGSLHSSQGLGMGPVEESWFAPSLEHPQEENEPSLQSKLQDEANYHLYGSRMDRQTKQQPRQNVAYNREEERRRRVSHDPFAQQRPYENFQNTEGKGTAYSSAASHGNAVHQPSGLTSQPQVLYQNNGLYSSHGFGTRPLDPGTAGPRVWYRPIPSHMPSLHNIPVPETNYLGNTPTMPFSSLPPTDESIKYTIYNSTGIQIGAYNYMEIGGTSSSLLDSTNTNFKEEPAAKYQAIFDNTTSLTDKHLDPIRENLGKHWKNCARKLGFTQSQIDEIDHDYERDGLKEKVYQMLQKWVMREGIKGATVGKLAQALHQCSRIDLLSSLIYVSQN

[33] = target: Angiopoietin-1 receptor (Homo sapiens) (UniProt Q02763); experiment: Inhibition of human […] at 1 uM by Eurofins kinase assay
[34] = target: Receptor-type tyrosine-protein kinase FLT3 (Homo sapiens, UniProt P36888, ITD); experiment: Inhibition of FLT3 ITD mutant (unknown origin) preincubated for 10 mins followed by addition of peptide solution by caliper mobility shift assay
[35] = target: T1, Vascular endothelial growth factor receptor 3; experiment: Inhibition of FLT4 (unknown origin) preincubated for 10 mins followed by addition of peptide solution by caliper mobility shift assay

## O=C(Nc1ccc(Oc2ccnc(NC(=O)N3CC(O)C3)c2)c(F)c1)c1cn(-c2cccnc2)nn1
K562
  IC50: 16.6 µM
Jurkat
  IC50: > 30 µM
EBC-1
  IC50: > 30 µM
[1]
  IC50 at 72 h: > 30 µM
MOLM-13 [2]
  Activity: Not active; Compound Barely Affect Flt3 Level
MOLM-13 [3]
  Activity: 87.7%
MOLM-13 [4]
  Activity: 4.21%
MOLM-13 [5]
  viability at 1 µM: 56.7%
MOLM-13 [6]
  Activity: 33.6%
MOLM-13 [7]
  Activity: 11%
MOLM-13 [8]
  Activity: 0.26%
[9]
  MRT last at 48 h: 3.01 h
[10]
  AUC(0-t) at 48 h: 45600 ng·h/mL
[11]
  bioavailability: 19.2%
[12]
  Activity: Non-toxic
[13]
  Activity: Non-toxic
[14]
  Activity: Non-toxic
[15]
  Activity: Non-toxic
[16]
  Activity: 22%
[17]
  inhibition: inactive
[18]
  inhibition: inactive
[19]
  inhibition: inactive
[20]
  inhibition: inactive
[21]
  inhibition: inactive
[22]
  inhibition: inactive
[23]
  inhibition: inactive
[24]
  inhibition: inactive
[25]
  inhibition: inactive
[26]
  inhibition: inactive
[27]
  inhibition: inactive
[28]
  inhibition: inactive
[29]
  inhibition: inactive
[30]
  inhibition: inactive
[31]
  inhibition: inactive
Homo sapiens
  inhibition: inactive
[32]
  inhibition: inactive
[33]
  inhibition: inactive
[34]
  IC50: 0.069 µM
[35]
  IC50: 0.475 µM
